Experimental data published in ChEMBL document CHEMBL1743341, “Cytochrome p450 enzymes mechanism based inhibitors: common sub-structures and reactivity” (Curr Drug Metab, 2005).
pKi: −log10 of the molar value. One block for each compound: values may come before it.

What was measured:
Assay type in all cases: ADME
[1] = biological target: T1, CYP2A6 (Homo sapiens, UniProt P11509); assay: (§1) Mechanism based inhibition of human cytochrome P450 2A6 measured by coumarin 7-hydroxylation; settings: human, probe coumarin (7-hydroxylation)
T1 sequence (P11509 whole entry): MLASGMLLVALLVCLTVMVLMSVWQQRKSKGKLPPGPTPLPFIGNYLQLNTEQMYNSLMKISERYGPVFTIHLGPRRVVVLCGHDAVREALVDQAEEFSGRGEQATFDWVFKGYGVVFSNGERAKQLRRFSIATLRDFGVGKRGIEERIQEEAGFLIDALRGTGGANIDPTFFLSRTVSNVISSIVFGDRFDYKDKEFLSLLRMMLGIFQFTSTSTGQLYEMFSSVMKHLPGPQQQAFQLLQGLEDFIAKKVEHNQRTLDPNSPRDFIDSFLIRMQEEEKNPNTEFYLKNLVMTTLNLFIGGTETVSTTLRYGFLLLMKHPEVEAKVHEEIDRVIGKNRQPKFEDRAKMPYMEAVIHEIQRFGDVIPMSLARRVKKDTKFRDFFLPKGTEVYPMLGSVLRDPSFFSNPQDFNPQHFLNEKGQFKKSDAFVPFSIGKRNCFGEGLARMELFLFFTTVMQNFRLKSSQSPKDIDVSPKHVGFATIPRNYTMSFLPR

[2] = biological target: T2, Cytochrome P450 2A6 (Homo sapiens, UniProt P11509); assay: as §1
T2 sequence (P11509 whole entry): T1 sequence (P11509 whole entry)

[3] = biological target: T3, Cytochrome P450 3A4 (Homo sapiens, UniProt P08684); assay: (§2) Mechanism based inhibition of human cytochrome P450 3A4 measured by testosterone 6-beta hydroxylation
[4] = biological target: T4, CYP3A4 (Homo sapiens, UniProt P08684); assay: as §2; settings: human, probe testosterone (6-beta hydroxylation)
[5] = biological target: T5, Cytochrome P450 1A1 (Homo sapiens, UniProt P04798); assay: Mechanism based inhibition of human cytochrome P450 1A1 measured by 7-ethoxyresorufin O-deethylation (EROD)
T5 sequence (P04798 whole entry): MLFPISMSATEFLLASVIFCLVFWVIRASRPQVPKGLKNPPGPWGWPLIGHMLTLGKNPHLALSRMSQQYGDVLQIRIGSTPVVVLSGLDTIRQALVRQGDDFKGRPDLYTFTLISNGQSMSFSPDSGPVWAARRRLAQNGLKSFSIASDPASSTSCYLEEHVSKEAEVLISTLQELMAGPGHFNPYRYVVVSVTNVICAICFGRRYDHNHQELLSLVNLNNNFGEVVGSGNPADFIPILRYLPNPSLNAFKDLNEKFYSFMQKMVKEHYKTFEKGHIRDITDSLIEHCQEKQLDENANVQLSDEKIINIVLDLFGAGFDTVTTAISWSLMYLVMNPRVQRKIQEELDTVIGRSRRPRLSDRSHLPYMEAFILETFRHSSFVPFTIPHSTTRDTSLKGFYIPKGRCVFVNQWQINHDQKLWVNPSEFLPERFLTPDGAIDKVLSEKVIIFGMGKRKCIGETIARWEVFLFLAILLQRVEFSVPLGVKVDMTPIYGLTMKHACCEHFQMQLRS

[6] = biological target: T6, Cytochrome P450 1A2 (Homo sapiens, UniProt P05177); assay: Mechanism based inhibition of human cytochrome P450 1A2 measured by 7-ethoxyresorufin O-deethylation (EROD)
T6 sequence (P05177 whole entry): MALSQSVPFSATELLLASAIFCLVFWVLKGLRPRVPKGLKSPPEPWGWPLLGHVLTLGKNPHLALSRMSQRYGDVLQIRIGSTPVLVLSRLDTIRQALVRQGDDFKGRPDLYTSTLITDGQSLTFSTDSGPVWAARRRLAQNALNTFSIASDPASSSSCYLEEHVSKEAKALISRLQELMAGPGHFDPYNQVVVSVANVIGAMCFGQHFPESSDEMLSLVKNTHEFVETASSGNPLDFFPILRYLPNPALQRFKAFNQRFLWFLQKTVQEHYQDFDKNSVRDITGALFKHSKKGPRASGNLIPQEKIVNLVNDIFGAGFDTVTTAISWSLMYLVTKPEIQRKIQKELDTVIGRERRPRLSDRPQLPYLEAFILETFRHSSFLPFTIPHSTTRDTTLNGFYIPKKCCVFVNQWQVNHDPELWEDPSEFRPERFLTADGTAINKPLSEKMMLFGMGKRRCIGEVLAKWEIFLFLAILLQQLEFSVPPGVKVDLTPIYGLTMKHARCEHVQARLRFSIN

[7] = biological target: T7, CYP1A1 (Rattus norvegicus, UniProt P00185); assay: (§3) Mechanism based inhibition of rat cytochrome P450 CYP1A1 measured by 7-ethoxyresorufin O-deethylation (EROD); settings: rat, probe 7-ethoxyresorufin (O-deethylation, EROD)
T7 sequence (P00185 whole entry): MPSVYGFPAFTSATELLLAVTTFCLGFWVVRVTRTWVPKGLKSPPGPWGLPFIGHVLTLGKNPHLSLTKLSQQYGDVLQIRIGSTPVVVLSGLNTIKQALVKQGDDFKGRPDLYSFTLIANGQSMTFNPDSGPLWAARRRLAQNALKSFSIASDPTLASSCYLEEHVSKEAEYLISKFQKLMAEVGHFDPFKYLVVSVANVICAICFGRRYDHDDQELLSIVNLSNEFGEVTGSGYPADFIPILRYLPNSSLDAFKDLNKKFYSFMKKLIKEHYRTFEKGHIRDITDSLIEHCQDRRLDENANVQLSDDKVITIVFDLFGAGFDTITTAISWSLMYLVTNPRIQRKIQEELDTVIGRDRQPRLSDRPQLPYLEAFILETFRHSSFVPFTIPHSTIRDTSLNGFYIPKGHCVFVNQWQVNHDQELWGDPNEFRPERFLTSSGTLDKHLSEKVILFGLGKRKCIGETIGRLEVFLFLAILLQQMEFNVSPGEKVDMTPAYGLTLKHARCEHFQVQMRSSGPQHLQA

[8] = biological target: T8, Cytochrome P450 1A1 (Rattus norvegicus, UniProt P00185); assay: as §3
T8 sequence (P00185 whole entry): T7 sequence (P00185 whole entry)

[9] = biological target: T9, CYP1A2 (Rattus norvegicus, UniProt P04799); assay: (§4) Mechanism based inhibition of rat cytochrome P450 CYP1A2 measured by 7-methoxyresorufin O-demethylation (MROD); settings: rat, probe 7-methoxyresorufin (O-demethylation, MROD)
T9 sequence (P04799 whole entry): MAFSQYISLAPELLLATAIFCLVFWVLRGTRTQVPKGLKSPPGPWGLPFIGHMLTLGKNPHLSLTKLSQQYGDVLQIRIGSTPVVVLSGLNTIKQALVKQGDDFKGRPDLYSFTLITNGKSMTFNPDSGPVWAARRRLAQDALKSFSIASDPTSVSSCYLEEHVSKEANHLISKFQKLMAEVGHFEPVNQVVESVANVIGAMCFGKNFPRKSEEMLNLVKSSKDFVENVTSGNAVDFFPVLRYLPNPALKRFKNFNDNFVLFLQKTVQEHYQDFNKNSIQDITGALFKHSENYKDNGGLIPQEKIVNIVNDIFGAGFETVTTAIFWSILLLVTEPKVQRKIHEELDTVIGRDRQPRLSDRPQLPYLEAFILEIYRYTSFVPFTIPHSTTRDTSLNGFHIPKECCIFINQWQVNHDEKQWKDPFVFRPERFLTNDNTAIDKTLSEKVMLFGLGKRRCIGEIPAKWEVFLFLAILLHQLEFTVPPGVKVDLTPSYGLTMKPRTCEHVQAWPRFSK

[10] = biological target: T10, Cytochrome P450 1A2 (Rattus norvegicus, UniProt P04799); assay: as §4
T10 sequence (P04799 whole entry): T9 sequence (P04799 whole entry)

[11] = biological target: Cytochrome P450 2E1 (Rattus norvegicus, UniProt P05182); assay: Mechanism based inhibition of rat cytochrome P450 CYP2E1
[12] = biological target: T3, Cytochrome P450 3A4; assay: (§5) Mechanism based inhibition of human cytochrome P450 3A4 measured by (14C)formaldehyde production from (N-methyl-14C)-erythromycin
[13] = biological target: T4, CYP3A4; assay: as §5; settings: human, probe (N-methyl-14C)-erythromycin

T3 sequence (P08684 whole entry): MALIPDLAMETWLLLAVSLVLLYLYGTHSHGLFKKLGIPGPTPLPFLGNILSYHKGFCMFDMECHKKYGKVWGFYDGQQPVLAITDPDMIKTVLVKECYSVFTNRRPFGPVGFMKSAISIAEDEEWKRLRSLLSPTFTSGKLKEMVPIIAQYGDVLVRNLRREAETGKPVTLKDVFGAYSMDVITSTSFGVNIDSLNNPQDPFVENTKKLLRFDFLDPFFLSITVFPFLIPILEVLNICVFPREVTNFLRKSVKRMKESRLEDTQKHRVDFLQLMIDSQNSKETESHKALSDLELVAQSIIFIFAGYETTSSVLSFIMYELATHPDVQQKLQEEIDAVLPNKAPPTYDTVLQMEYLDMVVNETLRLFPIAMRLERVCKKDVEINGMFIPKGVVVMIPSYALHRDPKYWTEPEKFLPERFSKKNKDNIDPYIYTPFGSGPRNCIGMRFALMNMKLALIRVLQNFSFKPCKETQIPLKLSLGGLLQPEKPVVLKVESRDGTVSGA
T4 sequence (P08684 whole entry): as above
Sequence of Cytochrome P450 2E1 (P05182 whole entry): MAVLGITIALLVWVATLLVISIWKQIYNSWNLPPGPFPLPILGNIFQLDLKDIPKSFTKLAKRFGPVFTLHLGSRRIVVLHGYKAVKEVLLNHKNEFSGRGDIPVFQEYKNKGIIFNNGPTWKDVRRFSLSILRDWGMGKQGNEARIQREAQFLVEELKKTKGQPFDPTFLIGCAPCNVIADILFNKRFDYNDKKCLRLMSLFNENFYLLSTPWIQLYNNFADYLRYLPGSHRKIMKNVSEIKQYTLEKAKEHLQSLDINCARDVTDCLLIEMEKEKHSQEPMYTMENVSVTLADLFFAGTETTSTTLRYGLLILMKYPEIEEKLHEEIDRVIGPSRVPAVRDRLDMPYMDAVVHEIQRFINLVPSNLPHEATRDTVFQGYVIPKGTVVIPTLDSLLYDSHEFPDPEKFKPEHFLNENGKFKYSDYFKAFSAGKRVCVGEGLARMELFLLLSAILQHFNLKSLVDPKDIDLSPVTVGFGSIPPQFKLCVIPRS

kinact [1]: 0.00233 s⁻¹
pKi [2]: 4.57
SMILES: COc1c2c(cc3ccc(=O)oc13)CCO2

pKi [3]: 5.10
kinact [4]: 0.00117 s⁻¹
SMILES: CNCCCC(C#N)(c1ccc(OC)c(OC)c1)C(C)C (stereo unspecified)

SMILES: Cc1cc(C)c(SCC[n+]2noc([O-])c2C)c(C)c1
mechanism based inhibition [5]: Cytochrome P450 mechanistic inhibitor: PMID 9107543
mechanism based inhibition [3]: Cytochrome P450 mechanistic inhibitor: PMID 9107543
mechanism based inhibition [6]: Cytochrome P450 mechanistic inhibitor: PMID 9107543

pKi [3]: 6.62
kinact [4]: 0.00367 s⁻¹
SMILES: CC(C)CN(C[C@@H](O)[C@H](Cc1ccccc1)NC(=O)[C@@H](NC(=O)CNCc1cccc(F)c1)C(C)(C)C)S(=O)(=O)c1cccc(N)c1

kinact [7]: 0.0015 s⁻¹
pKi [8]: 5.07
SMILES: C#Cc1ccc(NC(C)=O)cc1

kinact [7]: 0.00833 s⁻¹
pKi [8]: 6.27
SMILES: CC#CCCCc1ccccc1

SMILES: CC#Cc1ccc2ccccc2c1
mechanism based inhibition ([8]; rat): Cytochrome P450 mechanistic inhibitor: PMID 9074808

SMILES: C#Cc1ccc2c(ccc3ccccc32)c1
kinact [7]: 0.0133 s⁻¹
pKi [8]: 6.60

SMILES: C#Cc1ccc2ccc3ccccc3c2c1
kinact [7]: 0.00167 s⁻¹
pKi [8]: 7.05

SMILES: C#Cc1ccc2ccc3cccc4ccc1c2c34
kinact [7]: 0.00117 s⁻¹
pKi [8]: 7.70

SMILES: C#Cc1cc2cccc3ccc4cccc1c4c32
kinact [7]: 0.00117 s⁻¹
pKi [8]: 8.00
kinact [9]: 0.005 s⁻¹
pKi [10]: 5.92

SMILES: C/C=C\Cl.Cl/C=C\Cl
mechanism based inhibition [11]: Cytochrome P450 mechanistic inhibitor: PMID 9851676

mechanism based inhibition [3]: Cytochrome P450 mechanistic inhibitor
SMILES: CCC[C@@H](NC(=O)N1C(=O)C(CC)(CC)[C@@H]1Oc1ccc(C(=O)N2CCN(C)CC2)cc1)c1ccc2c(c1)OCO2

SMILES: CC#Cc1ccc2ccc3cccc4ccc1c2c34
kinact [7]: 0.000333 s⁻¹
pKi [8]: 6.52
kinact [9]: 0.001 s⁻¹
pKi [10]: 8.40

SMILES: C#Cc1ccc(-c2ccccc2)cc1
kinact [7]: 0.001 s⁻¹
pKi [8]: 6.57
kinact [9]: 0.00167 s⁻¹
pKi [10]: 6.06

pKi [12]: 7.27
kinact [13]: 0.00517 s⁻¹
SMILES: COc1cc(C[C@@H](CO)[C@H](CO)Cc2ccc3c(c2)OCO3)cc(OC)c1OC
